Source: doi:10.1101/2023.11.24.568596v1 (biorxiv, 2023)

Key:
Conditions in all cases: binder
MST1 = biological target: T1, MST1 (Homo sapiens, UniProt Q13043)
T1 sequence (Q13043 1-487): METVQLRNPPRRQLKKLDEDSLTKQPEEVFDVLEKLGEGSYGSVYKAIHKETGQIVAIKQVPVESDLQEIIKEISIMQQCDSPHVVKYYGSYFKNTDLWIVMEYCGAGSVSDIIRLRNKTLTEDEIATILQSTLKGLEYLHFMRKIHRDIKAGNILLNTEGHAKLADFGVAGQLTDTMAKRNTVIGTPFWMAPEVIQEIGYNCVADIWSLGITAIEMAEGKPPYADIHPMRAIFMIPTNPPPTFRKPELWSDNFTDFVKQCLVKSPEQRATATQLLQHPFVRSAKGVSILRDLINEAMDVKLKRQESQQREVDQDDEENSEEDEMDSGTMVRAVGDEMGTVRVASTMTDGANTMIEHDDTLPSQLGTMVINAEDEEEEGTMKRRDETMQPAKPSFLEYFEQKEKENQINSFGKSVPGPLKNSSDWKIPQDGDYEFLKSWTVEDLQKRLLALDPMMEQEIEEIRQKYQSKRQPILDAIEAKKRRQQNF

GSK3B = GSK3B (Homo sapiens, UniProt P49841)
Chain of GSK3B (P49841 whole entry): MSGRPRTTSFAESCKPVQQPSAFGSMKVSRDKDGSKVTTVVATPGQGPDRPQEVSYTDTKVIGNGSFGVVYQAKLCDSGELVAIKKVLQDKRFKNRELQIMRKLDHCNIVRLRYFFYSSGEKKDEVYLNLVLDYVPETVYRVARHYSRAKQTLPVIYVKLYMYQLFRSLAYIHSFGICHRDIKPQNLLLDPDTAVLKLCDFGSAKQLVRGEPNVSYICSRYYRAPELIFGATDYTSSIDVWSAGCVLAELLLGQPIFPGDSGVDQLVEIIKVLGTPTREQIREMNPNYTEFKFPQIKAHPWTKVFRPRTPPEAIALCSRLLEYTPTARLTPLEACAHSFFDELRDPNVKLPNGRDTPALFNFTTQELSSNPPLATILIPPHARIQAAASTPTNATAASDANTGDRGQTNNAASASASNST

CaMK1d = CaMK1d (Homo sapiens, UniProt Q8IU85)
Chain of CaMK1d (Q8IU85 whole entry): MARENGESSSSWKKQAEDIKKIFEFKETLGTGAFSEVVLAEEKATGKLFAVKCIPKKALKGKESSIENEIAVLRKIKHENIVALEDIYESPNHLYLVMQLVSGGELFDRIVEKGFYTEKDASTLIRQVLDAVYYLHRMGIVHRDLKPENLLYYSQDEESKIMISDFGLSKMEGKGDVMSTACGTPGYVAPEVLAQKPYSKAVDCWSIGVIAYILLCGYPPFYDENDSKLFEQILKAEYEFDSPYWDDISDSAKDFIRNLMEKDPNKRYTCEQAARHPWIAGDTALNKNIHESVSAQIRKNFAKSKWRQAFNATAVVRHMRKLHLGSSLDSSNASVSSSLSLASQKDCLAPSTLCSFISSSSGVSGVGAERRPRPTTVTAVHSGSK

OSR1 = OSR1 (Homo sapiens, UniProt O95747)
Chain of OSR1 (O95747 whole entry): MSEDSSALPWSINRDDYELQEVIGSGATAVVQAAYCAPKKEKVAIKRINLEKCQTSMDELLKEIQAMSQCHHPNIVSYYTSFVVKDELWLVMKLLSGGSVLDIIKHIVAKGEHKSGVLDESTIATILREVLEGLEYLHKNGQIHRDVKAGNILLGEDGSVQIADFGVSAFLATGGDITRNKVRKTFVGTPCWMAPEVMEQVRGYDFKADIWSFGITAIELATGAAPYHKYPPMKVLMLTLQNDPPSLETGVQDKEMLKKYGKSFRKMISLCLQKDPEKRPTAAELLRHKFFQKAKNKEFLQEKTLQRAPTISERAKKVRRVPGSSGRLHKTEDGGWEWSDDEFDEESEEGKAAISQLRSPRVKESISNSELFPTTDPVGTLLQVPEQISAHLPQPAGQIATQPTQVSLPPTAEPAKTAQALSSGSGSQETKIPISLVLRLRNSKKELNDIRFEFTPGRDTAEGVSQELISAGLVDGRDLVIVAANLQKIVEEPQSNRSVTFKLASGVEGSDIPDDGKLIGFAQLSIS

CASK = biological target: T2, CASK (Homo sapiens, UniProt O14936)
T2 sequence (O14936 1-926): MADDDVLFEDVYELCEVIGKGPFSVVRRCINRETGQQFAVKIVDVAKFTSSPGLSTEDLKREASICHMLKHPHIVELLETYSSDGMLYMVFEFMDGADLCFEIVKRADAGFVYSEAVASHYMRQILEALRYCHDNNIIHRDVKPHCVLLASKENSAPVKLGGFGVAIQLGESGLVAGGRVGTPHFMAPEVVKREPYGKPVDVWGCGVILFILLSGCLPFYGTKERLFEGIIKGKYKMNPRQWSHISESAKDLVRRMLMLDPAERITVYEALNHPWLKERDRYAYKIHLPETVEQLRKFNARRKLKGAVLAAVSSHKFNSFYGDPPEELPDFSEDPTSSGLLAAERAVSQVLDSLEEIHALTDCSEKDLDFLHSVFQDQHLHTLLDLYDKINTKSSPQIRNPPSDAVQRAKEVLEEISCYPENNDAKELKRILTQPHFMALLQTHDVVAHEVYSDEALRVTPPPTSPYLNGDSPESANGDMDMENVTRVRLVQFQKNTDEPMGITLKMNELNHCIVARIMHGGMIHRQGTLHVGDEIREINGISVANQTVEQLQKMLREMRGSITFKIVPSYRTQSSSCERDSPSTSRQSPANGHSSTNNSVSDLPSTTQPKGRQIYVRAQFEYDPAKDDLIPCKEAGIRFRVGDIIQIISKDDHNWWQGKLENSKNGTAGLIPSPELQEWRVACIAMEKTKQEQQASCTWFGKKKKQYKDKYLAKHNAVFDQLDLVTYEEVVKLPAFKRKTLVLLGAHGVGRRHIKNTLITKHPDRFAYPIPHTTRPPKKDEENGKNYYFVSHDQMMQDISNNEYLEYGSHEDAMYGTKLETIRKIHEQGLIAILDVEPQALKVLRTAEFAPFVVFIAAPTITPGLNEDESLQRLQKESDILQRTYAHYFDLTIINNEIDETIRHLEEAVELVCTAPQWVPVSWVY

CLK3 = CLK3 (Homo sapiens, UniProt P49761)
CLK1 = CLK1 (Homo sapiens, UniProt P49759)
Chain of CLK1 (P49759 whole entry): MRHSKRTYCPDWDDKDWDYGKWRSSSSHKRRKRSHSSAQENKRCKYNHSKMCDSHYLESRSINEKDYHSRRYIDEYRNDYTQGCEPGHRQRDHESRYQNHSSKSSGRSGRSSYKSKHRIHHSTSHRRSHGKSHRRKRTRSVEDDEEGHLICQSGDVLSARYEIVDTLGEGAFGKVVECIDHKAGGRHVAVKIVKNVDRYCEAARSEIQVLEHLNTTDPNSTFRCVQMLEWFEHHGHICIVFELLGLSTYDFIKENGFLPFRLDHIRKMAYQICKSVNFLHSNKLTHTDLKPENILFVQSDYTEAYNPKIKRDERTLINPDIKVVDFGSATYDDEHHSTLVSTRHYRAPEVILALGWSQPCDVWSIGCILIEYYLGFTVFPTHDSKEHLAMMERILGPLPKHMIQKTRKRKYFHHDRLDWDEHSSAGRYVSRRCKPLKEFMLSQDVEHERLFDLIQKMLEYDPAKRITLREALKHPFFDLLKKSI

NEK7 = NEK7 (Homo sapiens, UniProt Q8TDX7)
Chain of NEK7 (Q8TDX7 whole entry): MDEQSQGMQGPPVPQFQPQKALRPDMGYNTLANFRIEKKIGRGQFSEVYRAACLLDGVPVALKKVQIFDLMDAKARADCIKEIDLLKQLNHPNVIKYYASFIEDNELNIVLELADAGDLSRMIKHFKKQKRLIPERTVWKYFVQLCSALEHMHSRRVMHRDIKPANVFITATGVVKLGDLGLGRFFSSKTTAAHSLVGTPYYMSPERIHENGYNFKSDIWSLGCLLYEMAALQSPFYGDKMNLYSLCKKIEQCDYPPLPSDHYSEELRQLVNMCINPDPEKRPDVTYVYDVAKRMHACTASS

PCTAIRE1 = PCTAIRE1 (Homo sapiens, UniProt Q00536)
Chain of PCTAIRE1 (Q00536 whole entry): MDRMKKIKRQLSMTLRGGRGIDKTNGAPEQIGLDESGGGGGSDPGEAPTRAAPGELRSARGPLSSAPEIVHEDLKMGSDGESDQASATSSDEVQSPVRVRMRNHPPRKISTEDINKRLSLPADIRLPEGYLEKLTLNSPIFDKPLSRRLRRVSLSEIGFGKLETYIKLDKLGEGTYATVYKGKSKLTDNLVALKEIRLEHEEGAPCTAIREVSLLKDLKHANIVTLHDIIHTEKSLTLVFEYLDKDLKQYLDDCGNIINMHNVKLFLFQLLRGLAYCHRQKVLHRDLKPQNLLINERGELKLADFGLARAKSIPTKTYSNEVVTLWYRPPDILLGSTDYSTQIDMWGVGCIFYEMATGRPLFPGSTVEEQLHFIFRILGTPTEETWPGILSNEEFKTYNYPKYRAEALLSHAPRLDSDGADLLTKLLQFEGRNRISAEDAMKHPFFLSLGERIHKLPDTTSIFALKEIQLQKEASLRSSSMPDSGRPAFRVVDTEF

MAPKAPK2 = MAPKAPK2 (Homo sapiens, UniProt P49137)
Chain of MAPKAPK2 (P49137 whole entry): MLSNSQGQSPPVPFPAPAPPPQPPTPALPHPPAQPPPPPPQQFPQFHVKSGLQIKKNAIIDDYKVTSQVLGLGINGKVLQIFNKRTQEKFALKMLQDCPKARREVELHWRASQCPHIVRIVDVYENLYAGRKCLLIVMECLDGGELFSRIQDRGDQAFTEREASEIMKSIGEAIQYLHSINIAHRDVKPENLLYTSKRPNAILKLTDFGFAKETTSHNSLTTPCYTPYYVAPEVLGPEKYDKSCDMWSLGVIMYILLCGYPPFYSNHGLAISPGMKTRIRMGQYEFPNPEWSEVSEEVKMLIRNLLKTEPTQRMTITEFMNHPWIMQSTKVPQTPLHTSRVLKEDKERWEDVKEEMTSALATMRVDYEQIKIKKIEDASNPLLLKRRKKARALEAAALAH

PIM1 = PIM1 (Homo sapiens, UniProt P11309)
Chain of PIM1 (P11309 whole entry): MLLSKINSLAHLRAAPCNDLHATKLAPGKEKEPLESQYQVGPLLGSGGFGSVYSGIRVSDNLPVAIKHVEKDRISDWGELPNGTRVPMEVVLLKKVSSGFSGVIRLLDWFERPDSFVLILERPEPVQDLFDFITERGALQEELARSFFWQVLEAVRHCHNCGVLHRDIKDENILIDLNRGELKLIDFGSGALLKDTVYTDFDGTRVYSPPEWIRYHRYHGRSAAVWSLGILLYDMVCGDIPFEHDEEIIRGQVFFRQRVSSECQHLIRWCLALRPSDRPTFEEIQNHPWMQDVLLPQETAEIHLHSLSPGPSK

MARK3 = MARK3 (Homo sapiens, UniProt P27448)
Chain of MARK3 (P27448 whole entry): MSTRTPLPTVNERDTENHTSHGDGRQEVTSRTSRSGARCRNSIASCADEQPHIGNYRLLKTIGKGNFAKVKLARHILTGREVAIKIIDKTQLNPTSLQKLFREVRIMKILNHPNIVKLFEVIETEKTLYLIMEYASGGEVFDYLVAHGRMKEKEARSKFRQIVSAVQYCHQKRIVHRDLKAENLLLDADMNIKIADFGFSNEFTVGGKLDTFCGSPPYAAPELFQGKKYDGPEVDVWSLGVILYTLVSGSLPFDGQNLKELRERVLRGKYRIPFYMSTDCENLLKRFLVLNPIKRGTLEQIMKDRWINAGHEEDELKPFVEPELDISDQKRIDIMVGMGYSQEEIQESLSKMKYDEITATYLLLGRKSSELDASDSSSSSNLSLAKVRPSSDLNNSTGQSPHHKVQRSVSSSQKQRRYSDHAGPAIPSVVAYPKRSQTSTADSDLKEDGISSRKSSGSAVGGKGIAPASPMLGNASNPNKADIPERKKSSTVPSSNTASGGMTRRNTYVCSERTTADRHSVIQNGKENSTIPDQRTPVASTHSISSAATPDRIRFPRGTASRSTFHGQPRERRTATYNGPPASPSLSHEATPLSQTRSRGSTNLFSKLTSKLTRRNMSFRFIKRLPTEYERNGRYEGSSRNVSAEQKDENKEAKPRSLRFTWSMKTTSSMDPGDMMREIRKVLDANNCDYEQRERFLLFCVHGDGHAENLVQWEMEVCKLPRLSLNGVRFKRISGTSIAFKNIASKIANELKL

CaMK1g = CaMK1g (Homo sapiens, UniProt Q96NX5)
Chain of CaMK1g (Q96NX5 whole entry): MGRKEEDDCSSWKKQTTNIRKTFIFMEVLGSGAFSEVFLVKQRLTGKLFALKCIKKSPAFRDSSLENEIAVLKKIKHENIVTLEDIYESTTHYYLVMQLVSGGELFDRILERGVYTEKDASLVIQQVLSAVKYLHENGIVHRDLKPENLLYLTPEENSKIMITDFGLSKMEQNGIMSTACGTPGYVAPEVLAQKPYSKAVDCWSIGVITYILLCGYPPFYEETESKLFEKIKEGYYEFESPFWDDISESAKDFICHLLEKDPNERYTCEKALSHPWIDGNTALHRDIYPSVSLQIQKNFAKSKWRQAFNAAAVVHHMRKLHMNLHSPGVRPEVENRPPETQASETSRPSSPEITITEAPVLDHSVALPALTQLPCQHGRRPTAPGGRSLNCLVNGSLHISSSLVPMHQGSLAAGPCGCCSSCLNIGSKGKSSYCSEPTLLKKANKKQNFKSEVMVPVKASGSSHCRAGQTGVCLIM

MST4 = MST4 (Homo sapiens, UniProt Q9P289)
Chain of MST4 (Q9P289 whole entry): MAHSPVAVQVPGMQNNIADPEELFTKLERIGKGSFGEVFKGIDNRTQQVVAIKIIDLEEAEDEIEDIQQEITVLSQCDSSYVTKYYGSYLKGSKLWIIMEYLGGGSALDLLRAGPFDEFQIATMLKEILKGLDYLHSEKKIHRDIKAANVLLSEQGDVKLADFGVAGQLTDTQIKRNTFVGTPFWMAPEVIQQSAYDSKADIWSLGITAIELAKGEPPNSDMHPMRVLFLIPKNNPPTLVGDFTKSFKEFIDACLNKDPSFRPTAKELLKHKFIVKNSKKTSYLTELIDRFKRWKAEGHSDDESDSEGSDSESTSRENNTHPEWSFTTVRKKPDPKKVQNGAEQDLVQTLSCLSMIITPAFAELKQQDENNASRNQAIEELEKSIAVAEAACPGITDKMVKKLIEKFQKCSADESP

SMILES: CNc1ncc2cc(-c3ccc(-c4cccc(C)n4)cc3Cl)c(=O)n(CCCCN)c2n1 [compound 20, MRLW5]
- dTm MST1 (MST1): 5.6 °C
- ΔTm MRLW5 (20) (GSK3B): 1.8 °C
- ΔTm MRLW5 (20) (CaMK1d): 7.2 °C
- ΔTm MRLW5 (20) (OSR1): 1.6 °C
- ΔTm MRLW5 (20) (CASK): -0.5 °C
- ΔTm MRLW5 (20) (CLK3): 0.2 °C
- ΔTm MRLW5 (20) (CLK1): 0.3 °C
- ΔTm MRLW5 (20) (NEK7): -0.1 °C
- ΔTm MRLW5 (20) (PCTAIRE1): 2.3 °C
- ΔTm MRLW5 (20) (MAPKAPK2): 0.0 °C
- ΔTm MRLW5 (20) (PIM1): -0.1 °C
- ΔTm MRLW5 (20) (MARK3): 9.3 °C
- ΔTm MRLW5 (20) (CaMK1g): 3.9 °C
- dTm MST4 (MST4): 11.4 °C

SMILES: CNc1ncc2cc(-c3ccc(-c4cccc(C)n4)cc3Cl)c(=O)n(CCC3CCNCC3)c2n1 [compound 22, 6-(2-Chloro-4-(6-methylpyridin-2-yl)phenyl)-2-(methylamino)-8-(2-(piperidin-4-yl)ethyl)pyrido[2,3-d]pyrimidin-7(8H)-one]
- dTm MST1 (MST1): 6.0 °C
- ΔTm 22 (GSK3B): 1.3 °C
- ΔTm 22 (CaMK1d): 8.5 °C
- ΔTm 22 (OSR1): 0.7 °C
- ΔTm 22 (CASK): 0.3 °C
- ΔTm 22 (CLK3): -0.4 °C
- ΔTm 22 (CLK1): -1.6 °C
- ΔTm 22 (NEK7): 0.2 °C
- ΔTm 22 (PCTAIRE1): 3.0 °C
- ΔTm 22 (MAPKAPK2): -0.1 °C
- ΔTm 22 (PIM1): -0.4 °C
- ΔTm 22 (MARK3): 8.8 °C
- ΔTm 22 (CaMK1g): 5.1 °C
- dTm MST4 (MST4): 7.8 °C

SMILES: CNc1ncc2cc(-c3ccc(-c4cccc(C)n4)cc3Cl)c(=O)n(C[C@H]3CC[C@H](N)CC3)c2n1 [compound 23, 23]
- dTm MST1 (MST1): 7.9 °C
- ΔTm 23 (GSK3B): 1.7 °C
- ΔTm 23 (CaMK1d): 9.5 °C
- ΔTm 23 (OSR1): 2.3 °C
- ΔTm 23 (CASK): -0.4 °C
- ΔTm 23 (CLK3): 1.0 °C
- ΔTm 23 (CLK1): 0.8 °C
- ΔTm 23 (NEK7): -0.3 °C
- ΔTm 23 (PCTAIRE1): 4.4 °C
- ΔTm 23 (MAPKAPK2): -0.9 °C
- ΔTm 23 (PIM1): -0.7 °C
- ΔTm 23 (MARK3): 10.4 °C
- ΔTm 23 (CaMK1g): 9.5 °C
- dTm MST4 (MST4): 8.2 °C

SMILES: Cc1cccc(-c2ccc(-c3cc4cnc(NC(CO)CO)nc4n(CCCCN)c3=O)c(Cl)c2)n1 [compound 24, 8-(4-Aminobutyl)-6-(2-chloro-4-(6-methylpyridin-2-yl)phenyl)-2-((1,3-dihydroxypropan-2-yl)amino)pyrido[2,3-d]pyrimidin-7(8H)-one]
- ΔTm MR24 (24) (GSK3B): 0.0 °C
- ΔTm MR24 (24) (CaMK1d): 0.5 °C
- ΔTm MR24 (24) (OSR1): -0.5 °C
- ΔTm MR24 (24) (CASK): -0.4 °C
- ΔTm MR24 (24) (CLK3): -0.2 °C
- ΔTm MR24 (24) (CLK1): -0.4 °C
- ΔTm MR24 (24) (NEK7): -0.9 °C
- ΔTm MR24 (24) (PCTAIRE1): 1.7 °C
- ΔTm MR24 (24) (MAPKAPK2): -0.1 °C
- ΔTm MR24 (24) (PIM1): 0.5 °C
- ΔTm MR24 (24) (MARK3): 5.8 °C
- ΔTm MR24 (24) (CaMK1g): 1.4 °C

SMILES: Cc1cccc(-c2ccc(-c3cc4cnc(NCCCc5ccc(N)cc5)nc4n(CCCCN)c3=O)c(Cl)c2)n1 [compound 25, 8-(4-Aminobutyl)-2-((3-(4-aminophenyl)propyl)amino)-6-(2-chloro-4-(6-methylpyridin-2-yl)phenyl)pyrido[2,3-d]pyrimidin-7(8H)-one]
- ΔTm 25 (GSK3B): 3.8 °C
- ΔTm 25 (CaMK1d): 5.3 °C
- ΔTm 25 (OSR1): 0.4 °C
- ΔTm 25 (CASK): -0.4 °C
- ΔTm 25 (CLK3): -0.3 °C
- ΔTm 25 (CLK1): 1.4 °C
- ΔTm 25 (NEK7): -0.5 °C
- ΔTm 25 (PCTAIRE1): 4.5 °C
- ΔTm 25 (MAPKAPK2): -0.6 °C
- ΔTm 25 (PIM1): 0.3 °C
- ΔTm 25 (MARK3): 8.6 °C
- ΔTm 25 (CaMK1g): 6.5 °C

SMILES: Cc1cccc(-c2ccc(-c3cc4cnc(NCCCN5CCOCC5)nc4n(CCCCN)c3=O)c(Cl)c2)n1 [compound 26, MR26]
- ΔTm MR26 (26) (GSK3B): 0.8 °C
- ΔTm MR26 (26) (CaMK1d): 4.1 °C
- ΔTm MR26 (26) (OSR1): -0.1 °C
- ΔTm MR26 (26) (CASK): -0.3 °C
- ΔTm MR26 (26) (CLK3): -0.4 °C
- ΔTm MR26 (26) (CLK1): -0.1 °C
- ΔTm MR26 (26) (NEK7): -0.7 °C
- ΔTm MR26 (26) (PCTAIRE1): 1.8 °C
- ΔTm MR26 (26) (MAPKAPK2): -0.2 °C
- ΔTm MR26 (26) (PIM1): 0.3 °C
- ΔTm MR26 (26) (MARK3): 5.4 °C
- ΔTm MR26 (26) (CaMK1g): 4.3 °C
